# Assays:
# Aspergillus fumigatus = experiment: In vitro minimum inhibitory concentration for antifungal activity against human pathogenic fungi Aspergillus fumigatus; assay type: functional
# Candida albicans = experiment: In vitro minimum inhibitory concentration for antifungal activity against human pathogenic fungi Candida albicans; assay type: functional
# Cryptococcus neoformans = experiment: In vitro minimum inhibitory concentration for antifungal activity against human pathogenic fungi Cryptococcus neoformans; assay type: functional
# Sporothrix schenckii = experiment: In vitro minimum inhibitory concentration for antifungal activity against human pathogenic fungi Sporothrix schenck ii; assay type: functional
# Trichophyton benhamiae = experiment: In vitro minimum inhibitory concentration for antifungal activity against human pathogenic fungi Trichophyton mentagrophytes; assay type: functional, Arthroderma benhamiae
Compound,MIC (Aspergillus fumigatus) [µg/mL],MIC (Candida albicans) [µg/mL],MIC (Cryptococcus neoformans) [µg/mL],MIC (Sporothrix schenckii) [µg/mL],MIC (Trichophyton benhamiae) [µg/mL]
CCN1/C(=C(\C#N)n2ccnc2)SCC1C (stereo not given),25,> 100,> 100,> 100,50
CC1CCS/C(=C(/C#N)n2cnc3ccccc32)S1 (stereo not given),50,> 100,> 100,> 100,> 100
O=C(/C(=C1/SCCN1c1ccccc1)n1ccnc1)c1ccc(Cl)cc1,> 100,> 100,> 100,> 100,> 100
CC(=O)N1CCN(c2ccc(OC[C@H]3CO[C@](Cn4ccnc4)(c4ccc(Cl)cc4Cl)O3)cc2)CC1 [KETOCONAZOLE],0.7,0.1,0.3,0.1,25
O=C(/C(=C1/SCCN1c1ccc(Cl)cc1)n1ccnc1)c1ccc(Cl)cc1,> 100,> 100,> 100,> 100,> 100
CC1CCS/C(=C(/C#N)n2ccnc2)S1 (stereo not given),0.19,50,> 100,> 100,3.12
N#CC(=C1SCCCS1)n1ccnc1,3.1,100,> 100,> 100,25
O=C(C(=C1SCCCS1)n1ccnc1)c1ccc(Cl)cc1,12.5,> 100,> 100,> 100,12.5
CCOC(=O)/C(=C1/SCCC(C)S1)n1ccnc1 (stereo not given),50,> 100,> 100,> 100,25
CCOC(=O)C(=C1SCCCS1)n1ccnc1,> 100,> 100,> 100,> 100,> 100
CC1=CS/C(=C(/C#N)n2ccnc2)S1,12.5,> 100,> 100,> 100,12.5
CCN1CCS/C1=C(/C#N)n1ccnc1,25,> 100,> 100,> 100,25
